Reference: patent US8338445B2, “Crystal form of cabergoline” (Lek Pharmaceuticals D.D., priority 2007, dated 2012)

Columns and labels:
[1] = Residual solvents after comparable drying of crystal forms; type: physicochemical; conditions: after drying at 35° C. at 5 mBar for 48 h; both forms isolated from same solvent mixture
Method: Cabergoline from L isolated by the process of the invention can be washed by cold aliphatic hydrocarbons or digesting previously isolated material in a suspension of aliphatic hydrocarbons preferably heptane to remove impurities and finally dried in vacuo at temperature from 20 to 80° C., preferably from 30 to 50° C., preferably 30 to 40° C. to remove residual solvents. […] Form L and form I are isolated from the same solvent mixture, but form I is captured as an early precipitate as described in Example B and contains below 5% of form L. Solvents are easier removed if cabergoline is in the form of needles.
6.1 g of cabergoline obtained in example 1 were dissolved in 12 ml of 2-chlorotoluene by agitating at room temperature. The solution was cooled down to −30° C. while stirring. The gel-like material was formed after 60 minutes. Furthermore 150 ml of n-heptane were added and let stirring 1 hour at −20° C. Further the solvent was exchanged with 100 ml of fresh n-heptane, precooled to −20° C. and let stirring 1 hour at −20° C. Afterwards the temperature was slowly raising to 0° C. (0.5 K/min) and small samples were analyzed.

[2] = Particle size distribution by the Malvern method; type: physicochemical
Method: Physically pure cabergoline form L is isolated in a form of fine needles what is shown in the SEM picture. Average shorter axis of the needles is below 10 μm. Milling of cabergoline form L isolated by the process of the invention by a hammer mill gives particle size distribution d 0.9 below 10 μm.
6.1 g of cabergoline obtained in Example 1 were dissolved in 12 ml of 2-chlorotoluene by agitating at room temperature. The solution was cooled down to −30° C. while stirring. The gel-like material was formed after 60 minutes. Furthermore 150 ml of n-heptane were added and let stirring 1 hour at −20° C. Further the solvent was exchanged with 100 ml of fresh n-heptane, precooled to −20° C. and let stirring 1 hour at −20° C. Afterwards the temperature was raised to 10° C. (0.5 K/min) and further stirred for 1 hour, The temperature was raised to 20° C. (0.5 K/min) followed by stirring for 5 hour. The obtained dense suspension was filtered and washed with 50 ml of n-heptane and dried at 40° C. and 5 mbar for 24 hours. The obtained needle-like product (5.5 g) was identified as cabergoline form L. Particle size distribution of the product of Example 2 is the following: d 0.1=0.4 um; d 0.5=4.2 um; d 0.9=33 um.
Particle size distribution was measured by the Malvern method.

C=CCN1C[C@H](C(=O)N(CCCN(C)C)C(=O)NCC)C[C@@H]2c3cccc4[nH]cc(c34)C[C@H]21 [Cabergoline form L, 1-((6-allylergolin-8β-yl)-carbonyl)-1-(3-dimethylaminopropyl)-3-ethylurea]
residual solvent 2-Chlorotoluene [1]: 236 ppm | residual solvent Heptane [1]: 186 ppm | particle size distribution d 0.9 ([2]; after milling by a hammer mill): below 10 μm | Particle size distribution d 0.1 ([2]; product of Example 2, unmilled): 0.4 um | Particle size distribution d 0.5 ([2]; product of Example 2, unmilled): 4.2 um | particle size distribution d 0.9 ([2]; product of Example 2, unmilled): 33 um

C=CCN1C[C@H](C(=O)N(CCCN(C)C)C(=O)NCC)C[C@@H]2c3cccc4[nH]cc(c34)C[C@H]21 [Cabergoline form I, 1-((6-allylergolin-8β-yl)-carbonyl)-1-(3-dimethylaminopropyl)-3-ethylurea, reference compound]
residual solvent 2-Chlorotoluene [1]: 333 ppm | residual solvent Heptane [1]: 764 ppm
